Results: publication PMC7816196, “Antitubercular 2-Pyrazolylpyrimidinones: Structure–Activity Relationship and Mode-of-Action Studies” (Journal of Medicinal Chemistry, 2021)
Converted amounts (≈) assume the structure as drawn. Like-named read-outs stand apart in the source and are kept apart here.

Tests used:
[1] = system: Mtb H37Rv; assay: MIC against Mtb H37Rv, Alamar Blue broth microdilution; assay type: cell-based, Mycobacterium tuberculosis
[2] = system: SAWC4046; assay type: cell-based; details: Haarlem-like
[3] = in vivo; details: male, C57/BL6, mouse
[4] = Mouse pharmacokinetics, i.v. and oral; details: for tolerability: mouse, i.v. 2 mg/kg or oral 20 mg/kg
[5] = system: H37Rv; assay: microbe, parasite or virus in culture; assay type: cell-based; details: Mycobacterium tuberculosis, 336 h, 7H9 medium, day 14
[6] = system: SAWC3388; assay type: cell-based; details: T1, Tuscany, T5/Rus
[7] = system: WT H37Rv; assay: microbe, parasite or virus in culture; assay type: cell-based, M. tuberculosis; details: Mycobacterium tuberculosis
[8] = system: SAWC3200; assay: microbe, parasite or virus in culture; assay type: cell-based; details: Mycobacterium tuberculosis, 336 h; X1; day 14
[9] = Kinetic aqueous solubility at pH 7.4; assay type: physicochemical; details: read-out: Solubility
Description: 3) In vitro ADME - assays
The kinetic solubility assay was p erfo rmed using a miniaturised shake flask method. 10 mM stock solutions of each of the test compounds were used to prepare calibration standards (10-220 µM) in DMSO. The same 10 mM stock soluti ons were accurately dispensed in duplicat e into 96-well plates and the DMSO dried down (MiVac GeneVac, 90 min, 37 °C). Thereafter, the samples were reconstituted (200 µM) in phosphate buffered saline (pH 7. 4) and shaken (20 hours,25 °C). The solutions were centrifuged, and the supernatant was an alysed by means of HPLC-DAD (Agilent 1200 Rapid Resolution HPLC with a diode array detector). Best fit calibration curves were constructed using the calibration standards, which were used to determine the aqueous samples’ solubility.4
The metabolic stability assay was performed in dup licate in a 96-well micro t itre plate. The test compounds (0.1 µM) were incubated individually in mouse, rat and pooled human liver microsomes (final protei n concentration of 0.4 m g/mL; XenoTech, Lenexa, KS), suspended in 0.1M phosphate buffer (pH 7.4) for predetermined time points, in the presence and abs ence of the cofactor NADPH (1 mM). Reactions were quenched by adding 300 µL of ice cold acetonitrile containing internal standard (carbamazepine, 0.0236 µg/mL). The samples were centrifuged and test in the supernatant were an alysed by means of LC-MS/MS ((Agilent Rapid Resolution HPLC, AB SCIEX 4500 MS). The rel ative loss of parent compound over time w as monitored and plots (concentration vs. time) were prepared per compound to determine the first order rate constant for compound depletion. This was in turn used to calculate h alf-life, in vitro intrinsic clearance and in vivo hepatic extraction ratio. Metabolite search es were not conducted during the met abolic stability assay.5

[10] = system: SAWC2371; assay: microbe, parasite or virus in culture; assay type: cell-based; details: Mycobacterium tuberculosis, 336 h; Haarlem; day 14
[11] = system: panel of 21 liability targets; details: 10 μM test concentration
[12] = system: mmpL3-TetON; assay: microbe, parasite or virus in culture; assay type: cell-based, M. tuberculosis; details: for MIC50 / MIC: Mycobacterium tuberculosis
[13] = system: SAWC3385; assay type: cell-based; details: Cas 1/Delhi
[14] = system: SAWC1125; assay: microbe, parasite or virus in culture; assay type: cell-based; details: Mycobacterium tuberculosis, 336 h; typical Beijing; day 14
[15] = system: SAWC3906; assay type: cell-based; details: atypic Beijing
[16] = system: Rv3247c hypomorph; assay: MIC against thymidylate kinase hypomorph; assay type: cell-based, Mycobacterium tuberculosis
Description: Based on the structural similarity of the compounds with the published thymidylate kinase inhibitors,[39],[40] we asked whether this compound series can inhibit Mtb thymidylate kinase, which is an essential target encoded by Rv3247c. To investigate this, we tested the activity of the compounds 1, 2, and 12 against the Rv3247c hypomorph.

[17] = system: SAWC3933; assay type: cell-based; details: T1
[18] = mouse blood samples from the PK studies
[19] = system: CHO cell-line; assay: Cytotoxicity, MTT assay, CHO cells; details: read-out: Cytotoxicity (CHO IC50)
[20] = system: Mtb; assay: microbe, parasite or virus in culture; assay type: cell-based, Mycobacterium tuberculosis
[21] = system: Mtb; assay: Checkerboard (2D) MIC assay with Fe2+ in GAST media; assay type: cell-based, Mycobacterium tuberculosis; details: GAST medium, 100/200 μM Fe2+
[22] = male, C57/BL6, mouse, whole blood, iv, 2 mg/kg
[23] = Mycobacterium tuberculosis, H37RV, antitubercular activity of the initial hits, medium not stated
[24] = Mycobacterium tuberculosis, H37RV, supplement csv, medium not stated
[25] = male, C57/BL6, mouse, whole blood, po, 20 mg/kg

| Compound | MIC99 day 14, SAWC4046 [2] | MIC99 [5] | MIC99 day 14, SAWC3388 [6] | MIC50 ([7]; experiment: Follow-Up) | MIC50 ([7]; experiment: Initial) | MIC99 [8] | MIC99 [10] | change in MIC on transcriptional silencing of mmpL3 [12] | MIC50 ([12]; experiment: Follow-Up) | MIC ([12]; experiment: Initial) | MIC50 ([12]; experiment: Initial) | MIC99 day 14, SAWC3385 [13] | MIC99 [14] | MIC99 day 14, SAWC3906 [15] | MIC modulation upon silencing of Rv3247c [16] | MIC99 day 14, SAWC3933 [17] | further results |
| --- | --- | --- | --- | --- | --- | --- | --- | --- | --- | --- | --- | --- | --- | --- | --- | --- | --- |
| Cc1cc(C)n(-c2nc(C(F)(F)F)cc(=O)[nH]2)n1 [Compound 12, 2-(3,5-Dimethyl-1H-pyrazol-1-yl)-6-(trifluoromethyl)pyrimidin-4(3H)-one] | 1 µM (≈ 0.258 µg/mL) | 2 µM (≈ 0.516 µg/mL) | 2 to 4 µM | 8.3 µM (≈ 2.14 µg/mL) | 4.5 µM (≈ 1.16 µg/mL) | 1 µM (≈ 0.258 µg/mL) | 2 µM (≈ 0.516 µg/mL) | no significant change | 8.9 µM (≈ 2.3 µg/mL) | 6.2 µM (≈ 1.6 µg/mL) | 4.8 µM (≈ 1.24 µg/mL) | 1 µM (≈ 0.258 µg/mL) | 8 to 16 µM (≈ 2.07 to 4.13 µg/mL) | 2 µM (≈ 0.516 µg/mL) | did not observe any MIC modulation |  | loss in activity ([1]; CH3 or CF3 at R1 instead of phenyl): 10–15 fold; half-life at 24 h ([3]; iv, 2 mg/kg): 3.1 h; half-life at 24 h ([3]; po, 20 mg/kg): 4 h; AUC(0-inf) at 24 h [4, 22]: 48.8 µM·h; clearance at 24 h [4, 22]: 2.7 mL/min/kg; bioavailability ([4]; male, C57/BL6, mouse, whole blood, oral, 20 mg/kg): ~40%; tolerability [4]: well tolerated; MIC ([7]; experiment: Initial): 5.4 µM (≈ 1.39 µg/mL); solubility at 20 h ([9]; phosphate buffered saline, pH 7.4, aqueous (kinetic) solubility at pH 7.4): ≥ 200 µM; inhibition or activation of the enzyme/receptors [11]: no significant inhibition or activation |
| CC(=O)Nc1cc(C)nn1-c1nc(-c2ccccc2)cc(=O)[nH]1 [Compound 15, N-(3-Methyl-1-(4-oxo-6-phenyl-1,4-dihydropyrimidin-2-yl)-1H-pyrazol-5-yl)acetamide] |  | 4 to 8 µM (≈ 1.24 to 2.47 µg/mL) |  |  |  | 1 µM (≈ 0.309 µg/mL) |  | no significant change |  |  |  | 2 µM (≈ 0.619 µg/mL) | 8 to 16 µM (≈ 2.47 to 4.95 µg/mL) | 2 µM (≈ 0.619 µg/mL) |  | 8 µM (≈ 2.47 µg/mL) |  |
| Cc1cc(C)n(-c2nc(O)cc(-c3ccccc3)n2)n1 [Compound 1, 2-(3,5-Dimethyl-1H-pyrazol-1-yl)-6-phenylpyrimidin-4(3H)-one] | 0.25 to 0.5 µM | 1 to 2 µM (≈ 0.266 to 0.533 µg/mL) | 0.25 to 0.5 µM | 0.49 µM (≈ 0.13 µg/mL) | 0.26 µM (≈ 0.0692 µg/mL) | 0.25 µM (≈ 0.0666 µg/mL) | 0.25 to 0.5 µM (≈ 0.0666 to 0.133 µg/mL) | no significant change | 0.42 µM (≈ 0.112 µg/mL) | 0.7 µM (≈ 0.186 µg/mL) | 0.29 µM (≈ 0.0772 µg/mL) | 0.25 to 0.5 µM | 8 µM (≈ 2.13 µg/mL) | 0.25 µM (≈ 0.0666 µg/mL) | did not observe any MIC modulation | 2 to 4 µM | MIC [1, 23]: < 2 µM; MIC [1, 24]: 1 µM (≈ 0.266 µg/mL); MIC ([7]; experiment: Follow-Up): 0.78 µM (≈ 0.208 µg/mL); inhibition or activation of the enzyme/receptors [11]: no significant inhibition or activation; MIC ([12]; experiment: Follow-Up): 0.57 µM (≈ 0.152 µg/mL) |
| CCNc1cc(C)nn1-c1nc(-c2cccnc2)cc(=O)[nH]1 [Compound 47, 2-(5-(Ethylamino)-3-methyl-1H-pyrazol-1-yl)-6-(pyridin-3-yl)pyrimidin-4(3H)-one] |  |  |  | 3.5 µM (≈ 1.04 µg/mL) | 2.5 µM (≈ 0.741 µg/mL) |  |  | no significant change | 3.2 µM (≈ 0.948 µg/mL) | 2.4 µM (≈ 0.711 µg/mL) | 2.1 µM (≈ 0.622 µg/mL) |  |  |  |  |  | MIC [1, 24]: 6 µM (≈ 1.78 µg/mL); half-life ([3]; iv, 2 mg/kg): 5.6 h; half-life ([3]; po, 20 mg/kg): 4.4 h; AUC(0-inf) [4, 22]: 1.52 µM·h; CLint scaled [4, 22]: > 4000 mL/min/kg; Cmax [4, 22]: 2400 nM; Vd [4, 22]: 37.4 L/kg; AUC(0-inf) [4, 25]: 5.22 µM·h; Cmax [4, 25]: 2900 nM; Tmax [4, 25]: 0.5 h; bioavailability [4, 25]: 33%; tolerability [4]: well tolerated; MIC ([12]; experiment: Follow-Up): 4.4 µM (≈ 1.3 µg/mL); major metabolite [18]: glucuronide |
| 6-(3,5-Dimethyl-1H-pyrazol-1-yl)-4-phenylpyridin-2(1H)-one [Compound 5] |  |  |  |  |  |  |  |  |  |  |  |  |  |  |  |  | MIC [1]: >50 µM; MIC ([1]; supplement csv, medium not stated): >50 µM; IC50 [19]: > 50 µM; solubility at 20 h ([9]; aqueous (kinetic) solubility at pH 7.4): 185 µM |
| Cc1ccc(Nc2cc(C)nn2-c2nc(C)cc(O)n2)cc1 [Compound 2, 6-Methyl-2-(3-methyl-5-(p-tolylamino)-1H-pyrazol-1-yl)pyrimidin-4(3H)-one] |  |  |  |  |  |  |  | no significant change |  |  |  |  |  |  | did not observe any MIC modulation |  | MIC [1, 23]: < 2 µM |
| Cc1cc(C)n(-c2nc(-c3ccncc3)cc(=O)[nH]2)n1 [Compound 20, 2-(3,5-Dimethyl-1H-pyrazol-1-yl)-6-(pyridin-4-yl)pyrimidin-4(3H)-one] | 2 to 4 µM | 4 to 8 µM (≈ 1.07 to 2.14 µg/mL) | 4 to 8 µM |  |  | 1 to 2 µM (≈ 0.267 to 0.535 µg/mL) | 2 to 4 µM (≈ 0.535 to 1.07 µg/mL) |  |  |  |  | 2 to 4 µM | 32 µM (≈ 8.55 µg/mL) | 2 µM (≈ 0.535 µg/mL) |  | 16 µM (≈ 4.28 µg/mL) |  |
| Cc1cc(Nc2ccccn2)n(-c2nc(C(F)(F)F)cc(=O)[nH]2)n1 [Compound 45, 2-(3-Methyl-5-(pyridin-2-ylamino)-1H-pyrazol-1-yl)-6-(trifluoromethyl)pyrimidin-4(3H)-one] |  |  |  |  |  |  |  |  |  |  |  |  |  |  |  |  | MIC ([1]; Mycobacterium tuberculosis, H37RV, 168 h): ≤ 1 µM; Fold-change of MIC ([20]; 200 µM Ferric ammonium citrate): 2-4 fold; MIC ([20]; Mycobacterium tuberculosis, […], supplement: None): 0.39 µM (≈ 0.131 µg/mL); increase in MIC [21]: ≥ 32 fold |
